From patent US11693163B2, “Optical filter and imaging device” (AGC Inc., priority 2015, dated 2023) come the findings set out here.

Data set [1] is described as follows: Absorption characteristic of NIR dye in dichloromethane. It is filed as physicochemical. The source says:
The obtained NIR dyes were each dissolved in dichloromethane, and an ultraviolet-visible spectrophotometer (manufactured by Hitachi High Technologies Co., Ltd., U-4100 type) was used to measure each spectral transmittance curve, from which a maximum absorption wavelength λmax, a wavelength λ80 at which the transmittance becomes 80% on a shorter wavelength side than the maximum absorption wavelength with the transmittance at the maximum absorption wavelength set to 10%, a difference between the maximum absorption wavelength λmax and the wavelength λ80 (λmax−λ80), a maximum absorption constant εA in light of a wavelength range of 430 to 550 nm, a maximum absorption constant εB in light of a wavelength range of 670 to 730 nm, and a ratio of these (εB/εA) were calculated. Note that the U-4100 type was used for the measurement of spectral transmittance curves in each of the following examples.

Data set [2] is described as follows: Solubility of NIR dye to resin solution. It is filed as physicochemical. The conditions noted are these: stirred two hours; for Solubility evaluation, Polyimide resin: 12.5 mass % C3450 in cyclohexanone:NMP=1:1, 50° C.; for Solubility evaluation, Polyester resin: 12.5 mass % OKP850 in cyclohexanone:NMP=1:1, 50° C.; for Solubility evaluation, Polyethersulfone resin: 12.5 mass % PES4800 in cyclohexanone:NMP=1:1, 50° C. The procedure:
Results are illustrated in Table 8 together with the kinds of the used dyes. Note that the temperature of the resin solution in the solubility test was set to 50° C., the NIR dye was put into the resin solution, the resultant resin solution was stirred for two hours, and the presence/absence of occurrence of the dissolution was observed visually. Evaluation criteria of the solubility are as follows.
A: Solubility of 9 mass % or more
B: Solubility of 7 mass % or more and less than 9 mass %
C: Solubility of 5 mass % or more and less than 7 mass %
D: Solubility of 3 mass % or more and less than 5 mass %
E: Solubility of 1 mass % or more and less than 3 mass %
F: Solubility of less than 1 mass %

In the case of `CCCc1ccc(OC(=O)Nc2cc3c(cc2C2=C([O-])C(=c4cc5c(cc4NC(=O)Oc4ccc(CCC)cc4)=[N+](C(C)C)C(C)C5(C)C)C2=O)C(C)(C)C(C)N3C(C)C)cc1` (stereo not drawn) [A1-9], in data set [1], the “εA (maximum absorption constant, 430 to 550 nm)” value stood at 0.013; the “εB (maximum absorption constant, 670 to 730 nm)” value is given as 1; the εB/εA came to 75.7; the “λ80 (wavelength of 80% transmittance, shorter side of λmax, transmittance at λmax set to 10%)” value came out at 651 nm. For the same compound, in data set [1], the “λmax (maximum absorption wavelength)” value is given as 700 nm and the λmax-λ80 is listed as 49 nm. In addition, in data set [2], the “Solubility evaluation, Polyimide resin” value is “E (1 mass % or more and less than 3 mass %)”; the “Solubility evaluation, Polyester resin” value is “E (1 mass % or more and less than 3 mass %)”; the “Solubility evaluation, Polyethersulfone resin” value was “E (1 mass % or more and less than 3 mass %)”.
In the case of `CCCCCOC(=O)Nc1cc2c(cc1C1=C([O-])C(=c3cc4c(cc3NC(=O)OCCCCC)=[N+](C(C)(CC)CC)C(C)C4(C)C)C1=O)C(C)(C)C(C)N2C(C)(CC)CC` (stereo not drawn) [A1-13], in data set [1], the “εA (maximum absorption constant, 430 to 550 nm)” value turned out to be 0.019; the “εB (maximum absorption constant, 670 to 730 nm)” value stood at 1; the εB/εA amounted to 51.8; the “λ80 (wavelength of 80% transmittance, shorter side of λmax, transmittance at λmax set to 10%)” value is on record as 659 nm. Moreover, in data set [1], the “λmax (maximum absorption wavelength)” value is given as 707 nm and the λmax-λ80 was 48 nm. In data set [2], the “Solubility evaluation, Polyimide resin” value is reported as “A (9 mass % or more)”; the “Solubility evaluation, Polyester resin” value is “A (9 mass % or more)”; the “Solubility evaluation, Polyethersulfone resin” value is listed as “A (9 mass % or more)”.
